Measured values published in paper PMC9468151, “Identification of a binding site on soluble RANKL that can be targeted to inhibit soluble RANK-RANKL interactions and treat osteoporosis” (Nature Communications, 2022).
pIC50, pKd: −log10 of the molar value. “And” between values parts separate entries of the source, which are not always exact repeats. Identical values can stand only once.

Experiments:
[1] = Pharmacokinetic studies in rat; type: in vivo; parameters: unit not given here
sRANKL trimerization = target: T1, sRANKL trimerization (Rattus norvegicus, UniProt Q9ESE2, D175N); test: Cross-link assay of sRANKL trimerization; type: biochemical
T1 construct: (1) sRANKL (rat 159-318 aa); His6-sumo (N, cleaved yes); made in house; host or cells: Escherichia coli BL21 (DE3)
Excerpt: the effect of S3-15 on RANKL self-trimerization. […]
control), S3 and S3-15 -treated sRANKL samples. The sRANKL dimer and monomer […]
trimerization process in vitro. […]
line 18 and, Figure S4L of the manuscript. […]
convinced that our sRANKL selective inhibitors does attenuate RANKL-RANK interaction without affect RANKL trimerization.”.
3. Does S3-15 affect the binding of sRANKL and mRANKL to OPG, an important
Response: To answer this question, we have performed a number of experiments. The pull-down assay was conducted to explore the effects of S3-15 on sRANKL and OPG […]
sRANKL to OPG at high concentration (10 and 1 μM) but not low concentration (0.3 μM). Three more experiments on mRANKLs have conducted to study if S3-15 affects the binding of mRANKL to OPG. Two of the experiments are on human and mouse mRANKL expressed in 293T cell, the other is on the mRANKL expressed in MC3T3-E1 osteogenic precursor cells. […]
affect the binding of mRANKL to OPG at concentration of 1 μM. […]
been documented in the page 11 at line 21 and Figure S4M-S4P of the manuscript.
Here is the paragraph we have added to the manuscript: […]

[2] = system: sRANKL induced osteoclast differentiation; test: In vitro anti-osteoclastogenesis activity determination (TRAP staining); type: cell-based, mouse; parameters: key to inhibition of osteoclastogenesis, dose-response (fig. S2a): % inhibition = 100 − (treated−unstimulated)/(untreated−unstimulated)×100; details: for pIC50: 120 h, BMMs, M-CSF + 100 ng/mL sRANKL, 5 days, TRAP staining, read-out: OC IC50 (anti-osteoclastogenesis activity); for OC inhibitory ratio, sRANKL induced (fig. 3c IC50 curve data): replicates
In short: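 Mouse bone-marrow macrophages in 10 ng/mL M-CSF were stimulated with 100 ng/mL sRANKL plus compound at 9 concentrations, refreshed every 2 days, triplicate wells. After 5 days TRAP-stained osteoclasts were counted; inhibition normalised to untreated and unstimulated controls, IC50 by nonlinear regression.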

sRANKL = target: T2, sRANKL (Rattus norvegicus, UniProt Q9ESE2, D175N); test: Isothermal titration calorimetry (ITC) with sRANKL; type: binding; details: for pKd: 25 °C, PBS 0.8% DMSO
T2 construct: (1) sRANKL (rat 159-318 aa); His6-sumo (N, cleaved yes); made in house; host or cells: Escherichia coli BL21 (DE3)
T2 sequence (Q9ESE2 159-318 D175N): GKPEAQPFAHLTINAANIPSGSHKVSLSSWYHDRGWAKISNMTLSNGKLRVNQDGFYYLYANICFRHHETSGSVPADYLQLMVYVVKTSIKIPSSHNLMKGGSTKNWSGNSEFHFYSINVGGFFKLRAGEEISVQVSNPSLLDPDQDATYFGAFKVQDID
Experimental: ITC titrations were performed on the MicroCal iTC200 system at 25 °C[55]. Working stocks of compound S3-15 were prepared in 100% DMSO at 50 mM and then diluted to 500 μM at PBS with final DMSO concentration at 0.8% (v/v). PBS with 0.8% DMSO was used as ITC buffer. Purified sRANKL or L-RANKL protein was buffer exchanged into same ITC buffer using a Millipore spin column. S3-15 at 500 μM was loaded into a syringe and protein was loaded into an isothermal calorimeter cell. During titration, S3-15 in the […] was injected (2 μL per injection, 25 injections in total, and 180 s between each injection) regularly from a rotating syringe into protein solution in the isothermal calorimeter cell. The sample cell was stirred at 385 rpm. Reference cell power was set to 5 μcal/s. Control experiments were conducted under the same conditions using buffer solution instead of S3-15. Data were analyzed using a one-site binding model in Origin 7.1 software for ITC version 7.0 (MicroCal). The dissociation constant, KD, was calculated according to equation KD = 1/K. All other parameters, K ([…]), N (varying the stoichiometry), ΔH (enthalpy of the reaction), and ΔG ([…] of the reaction) were determined from the titration data.

[3] = Mus musculus, Osteoclast, conc. 0.0843226 μM, three replicate columns, read-out: inhibition of osteoclastogenesis, dose-response (fig. S2a)
[4] = Mus musculus, Osteoclast, conc. 0.278265 μM, three replicate columns, read-out: inhibition of osteoclastogenesis, dose-response (fig. S2a)
[5] = Mus musculus, Osteoclast, conc. 0.918274 μM, three replicate columns, read-out: inhibition of osteoclastogenesis, dose-response (fig. S2a)
[6] = Mus musculus, Osteoclast, conc. 3.0303 μM, three replicate columns, read-out: inhibition of osteoclastogenesis, dose-response (fig. S2a)
[7] = Mus musculus, Osteoclast, conc. 10 μM, three replicate columns, read-out: inhibition of osteoclastogenesis, dose-response (fig. S2a)
[8] = Mus musculus, Osteoclast, conc. 33 μM, three replicate columns, read-out: inhibition of osteoclastogenesis, dose-response (fig. S2a)
[9] = conc. 0.0023464 μM, three replicate columns
[10] = conc. 0.00774313 μM, three replicate columns
[11] = conc. 0.0255523 μM, three replicate columns
[12] = conc. 0.0843226 μM, three replicate columns
[13] = conc. 0.278265 μM, three replicate columns
[14] = conc. 0.918274 μM, three replicate columns
[15] = conc. 3.0303 μM, three replicate columns

Row | Compound | plasma concentration-time (fig. S2c) ([1]; time 28 h) | plasma concentration-time (fig. S2c) ([1]; time 36 h) | effect on trimerization of sRANKL (sRANKL trimerization) | pIC50 ([2]; Mus musculus, Osteoclast) | inhibition at 0.0843226 µM [2, 3] [%] | inhibition at 0.278265 µM [2, 4] [%] | inhibition at 0.918274 µM [2, 5] [%] | inhibition at 3.0303 µM [2, 6] [%] | inhibition at 10 µM [2, 7] [%] | inhibition at 33 µM [2, 8] [%] | inhibition of osteoclastogenesis, dose-response (fig. S2a) [2, 9] | inhibition of osteoclastogenesis, dose-response (fig. S2a) [2, 10] | inhibition of osteoclastogenesis, dose-response (fig. S2a) [2, 11] | inhibition of osteoclastogenesis, dose-response (fig. S2a) [2, 12] | inhibition of osteoclastogenesis, dose-response (fig. S2a) [2, 13] | inhibition of osteoclastogenesis, dose-response (fig. S2a) [2, 14] | inhibition of osteoclastogenesis, dose-response (fig. S2a) [2, 15] | pKd (sRANKL) | further results
1 | CCOC(=O)c1sc(NC(=O)/C(=N/Nc2ccccc2C(=O)O)C(C)=O)nc1C [S3, (E)-2-(2-(1-((5-(ethoxycarbonyl)-4-methylthiazol-2-yl)amino)-1,3-dioxobutan-2-ylidene) hydrazinyl) benzoic acid] | 0.7405 and 0.07032 and 0.1222 | 0.6382 and 0.07762 and 0.02166 | cannot affect | 7.02 | 55.6 | 62.8 | 74.4 | 82.5 | 95.5 | 100 | 14.7982 and 23.3184 and -0.4484 | 4.4843 and 2.691 and 14.7982 | 42.1525 and 52.4664 and 21.0762 | 52.4664 and 43.4978 | 63.2287 and 72.1973 | 71.7489 and 80.2691 | 79.8206 and 91.0314 | – | –
2 | CCOC(=O)c1sc(NC(=O)/C(=N/Nc2ccc(O)cc2C(=O)O)C(C)=O)nc1C [S3-05] | 0.0028 and 0.0125 and 0.0083 | 0.0011 and 0.0231 and 0.0066 | – | 6.39 | 24.5 | 45.8 | 58.5 | 78.9 | 86.2 | 98.5 | 5.216 and -0.5015 and 0.1003 | 7.021 and 8.826 | 18.7563 and 13.6409 | 23.8716 | 51.2538 and 38.6159 | 65.3962 and 65.0953 | 74.4233 and 77.4323 | 5.18 | inhibition at 0.00774313 µM ([2]; Mus musculus, Osteoclast, conc. 0.00774313 μM, three replicate columns, read-out: inhibition of osteoclastogenesis, dose-response (fig. S2a)): 10.9%; inhibition at 0.0255523 µM ([2]; Mus musculus, Osteoclast, conc. 0.0255523 μM, three replicate columns, read-out: inhibition of osteoclastogenesis, dose-response (fig. S2a)): 21.5%; inhibition of osteoclastogenesis, dose-response (fig. S2a) ([2]; conc. 10 μM, three replicate columns): 87.0612 and 88.2648; inhibition of osteoclastogenesis, dose-response (fig. S2a) ([2]; conc. 33 μM, three replicate columns): 99.3982 and 99.6991
3 | CC(=O)/C(=N\Nc1ccccc1C(=O)O)C(=O)Nc1ccccn1 [S3-15] | – | – | cannot affect the trimerization of sRANKL | – | – | – | – | – | – | – | – | – | – | – | – | – | – | 5.24 | SI (sRANKL over binary-RANKL) (sRANKL; ratio of ITC KD): 21; OC inhibitory ratio, sRANKL induced (fig. 3c IC50 curve data) ([2]; 0.003 μM): 7.9602 and 6.219 and 4.726; OC inhibitory ratio, sRANKL induced (fig. 3c IC50 curve data) ([2]; 0.01 μM): -4.229 and 6.965 and 4.975; OC inhibitory ratio, sRANKL induced (fig. 3c IC50 curve data) ([2]; 0.03 μM): 19.1542 and 29.1045 and 33.5821; OC inhibitory ratio, sRANKL induced (fig. 3c IC50 curve data) ([2]; 0.1 μM): 31.8408 and 36.5672 and 39.0547; OC inhibitory ratio, sRANKL induced (fig. 3c IC50 curve data) ([2]; 0.3 μM): 40.2985 and 51.7413 and 33.8308; OC inhibitory ratio, sRANKL induced (fig. 3c IC50 curve data) ([2]; 1 μM): 50.7463 and 58.209 and 52.4876; OC inhibitory ratio, sRANKL induced (fig. 3c IC50 curve data) ([2]; 3.3 μM): 76.6169 and 75.8706 and 78.607; OC inhibitory ratio, sRANKL induced (fig. 3c IC50 curve data) ([2]; 10 μM): 91.791 and 91.0448 and 90.2985; OC inhibitory ratio, sRANKL induced (fig. 3c IC50 curve data) ([2]; 33 μM): 99.005 (2×) and 98.5075
